Source: US20070274947A1, “Antisense Oligonucleotides Directed to Ribonucleotide Reductase R1 and Uses Thereof in the Treatment of Cancer” (priority 2003, published 2007)
“Also recorded” adds a separate entry of the source. Read-outs that look alike come from different tables or passages of the source.

Tests used:
[1] = test system: Human taxol-resistant promyelocytic leukemia cells (HL-60); experiment: Taxol-resistant promyelocytic leukemia (HL-60) growth in SCID mice; assay type: in vivo; conditions: SEQ ID NO:1 10 mg/kg i.v. every other day, taxol 10 mg/kg i.p. once a week
Procedure: Human taxol-resistant promyelocytic leukemia cells (HL-60) (7×10^6 cells in 100 μl of PBS) were injected into the right flank of 6-7 weeks old female SCID mice. After the size of tumor reached an approximate volume of 100 mm^3, 10 days post tumor cell injection, SEQ ID NO:1 was administered by bolus infusion into the tail vein every other day at 10 mg/kg. Control animals received saline alone for the same period. The anti-tumor effect of SEQ ID NO:1 was further compared to that of taxol. Taxol was administered i.p. once a week at a dose of 10 mg/kg. Anti-tumor activity was estimated by the inhibition of tumor volume, which was measured with caliper (FIG. 17A). Each point represents mean tumor volume calculated from 10 animals per experimental group. In addition animals were sacrificed and tumor weights taken at the end of the study.

[2] = Repeat dose 14-day toxicity study in monkeys (Part 1); conditions: monkey
[3] = Toxicokinetics in repeat dose (14-day and 21-day) continuous infusion studies in monkeys; conditions: monkey
[4] = cynomolgus monkey, in vivo
[5] = cynomolgus monkey, in vivo; remark: listed apart in the source
SK-OV-3 (ovary) = experiment: Colony forming ability, SK-OV-3; assay type: cell-based, human; conditions: 0.2 μM antisense oligonucleotide/lipofectin, 4 hours
Procedure: (§1) The effect of SEQ ID NO:1 on the colony forming ability were evaluated in the following human tumor cell lines:
(§2) Tumor cells were washed in 5 ml of phosphate buffered saline, pH 7.2, prior to 0.2 μM antisense oligonucleotide/lipofectin treatment for 4 hours. The medium was removed and the cells were gently washed with 5 ml of growth medium. The cells were then cultured in growth medium for seven to ten days. Surviving colonies were visualized by methylene blue staining and colonies of 50 or more cells were scored (Choy et al., 1988 and Huang and Wright, 1994). Results are summarized from 4 to 8 trials for each tumor cell line.

[6] = test system: CB7 Friend retrovirus-induced mouse Erytheroleukemia cells; experiment: Survival of SCID mice bearing mouse erythroleukemia (CB7); assay type: in vivo; conditions: 10 mg/kg i.v. every second day, stopped at day 71; one mouse died at day 30 and another at day 54; untreated died within 36 days
Procedure: In vivo studies were conducted to assess the therapeutic potential of SEQ ID NO:1 in the treatment of mouse Erythroleukemia. CB7 Friend retrovirus-induced mouse Erytheroleukemia cells (5×10^6) collected from subconfluent logarithmically growing cultures were injected i.v. via the tail vein of each animal and disease was allowed to establish for 2 days. SEQ ID NO:1 in normal saline was administered by tail vein injections every second day at a dose of 10 mg/kg. Control animals received saline alone, without oligonucleotide. Treatment with SEQ ID NO:1 was stopped at day 71. Antitumor effects of SEQ ID NO:1 treatment were assessed by the examination of survival of mice (FIG. 19). All mice died as a consequence of tumor progression within 36 days when left untreated. All SEQ ID NO:1 treated animals, on the other hand, survived beyond day 71 except one mouse which died at day 30 and another at day 54.

[7] = Tissue distribution after continuous infusion in rats; assay type: in vivo; conditions: rat
[8] = rat
Procedure: Ten rats/sex/group were administered SEQ ID NO:1 at doses of 0 (control), 2, 10, or 50 mg/kg/day. Animals in the control group received the vehicle article, PBS. […] An additional 5 rats/group were included in the control and high dose group as recovery animals, and were allowed a 14-day observation period following the treatment period. Parameters assessed during the study include mortality, clinical signs, body weights, food consumption, opthalmoscopic examination, clinical pathology assessment (hematology, coagulation, clinical chemistry, and urinalysis). Terminal procedures included a complete necropsy of each animal, and histopathologic evaluation of selected tissues for animals in the control and high dose groups. For toxicokinetic evaluations, an additional 8 rats/sex were included in the high dose groups. Serial and terminal blood samples were withdrawn from satellite animals at selected time points during infusion and after the end of infusion.

[9] = monkey, in vivo
[10] = Repeat dose 21-day toxicity study in monkeys (Part 2); conditions: monkey; 21-day infusion, 50 mg/kg/day
R1 protein = experiment: Immunoprecipitation of newly synthesized R1 protein in AsPC-1 cells; assay type: cell-based, human; conditions: 0.2 μM, 4 hours
Procedure: Immunoprecipitation was performed using a saturating amount of AD203 anti-R1 monoclonal antibody as previously described (Choy et al., 1988). Human tumor cells, AsPC-1 (pancreatic adenocarcinoma), were exposed for 4 hours to SEQ ID NO:1, SEQ ID NO:1 M is (a SEQ ID NO:1 sequence containing four base mismatch) or SEQ ID NO:1 Scr (a sequence with the same ratio of ACTG as the SEQ ID NO:1 sequence but scrambled). Cells were then washed and labeled with ^35S-methionine for 4-7 hours. R1 protein was specifically immunoprecipitated with R1 antibody from cell lysate, resolved on sodium dodecyl sulfate-polyacrylamide gels and analyzed by autoradiography.

H460 (lung) = experiment: Colony forming ability, H460; assay type: cell-based, human; conditions: 0.2 μM antisense oligonucleotide/lipofectin, 4 hours
Procedure: as §1, §2

5′-CTCTAGCGTCTTAAAGCCGA-3′ (CTCTAGCGTCTTAAAGCCGA; chemistry not given here) [SEQ ID NO:1]
tumor growth / tumor weight [1]: significant reduction of tumor weight
deaths, clinical signs, appetite, ophthalmology, cardiology, hematology, organ weights ([2]; 14-day infusion up to 40 mg/kg/day): no deaths, no treatment-related clinical signs, effects on appetite, ophthalmology effects, cardiology, hematology effects, or changes in organ weights
toxicity ([2]; continuously for 14 days at 10 mg/kg/day (123 mg/m^2/day)): Minimal and reversible toxicity
AUC estimates versus duration and dose ([3]; Part 1 and Part 2 Recovery animals): proportional with the duration of infusion and the administered dose level
sex differences in toxicokinetic profile ([3]; Parts 1 and 2): no apparent sex-differences
clinical parameters in mid and low dose animals [4]: Transient changes
complement split product Bb [4]: appeared to increase
activated partial thromboplastin time (APTT) ([4]; 40 mg/kg/day): reversible increase
elimination t1/2 [5]: 2.2 to 2.5 h
plasma Cl [5]: 0.762 to 1.945 mL/min/kg
time to Css [5]: consistently achieved at the first or second blood collection timepoint
inhibition in colony forming ability (SK-OV-3 (ovary)): greater than 60%
survival of mice [6]: > 71 days
levels in the brain [7]: very low or below the limits of detection; also recorded: undetectable
tissue concentrations, rank order [7]: kidney>liver>spleen>lymph node (monkey)>lung (monkey)>heart; also recorded: highest in the kidney followed by the liver, spleen and heart
sex difference in plasma concentrations during infusion [8]: no apparent differences in the levels between males and females
mean Cmax ([8]; in vivo): 40.4 µg/mL
median time at which Cmax occurred ([8]; in vivo): 96 h
time to steady state of continuous infusion ([8]; 50 (40) mg/kg/day continuous infusion): approximately 24 h
elimination t1/2 ([8]; after 14-day continuous infusion, high dose): 8.6 h
steady state level (Css) in plasma ([8]; continuous i.v. infusion 50 mg/kg/day (reduced to 40 mg/kg/day), 14 days): 34.8 µg/mL
levels in the brain [9]: very low or below the limits of detection
tissue concentrations, rank order [9]: kidney>liver>spleen>lymph node (monkey)>lung (monkey)>heart
tissue levels upon discontinuation of treatment [9]: decreased over time
mortality [10]: one high dose animal was sacrificed on Day 19 for ethical reasons
R1 protein expression (synthesis) (R1 protein): specifically decreases R1 protein expression; also recorded: dramatically decreased; also recorded: specifically inhibit the expression of R1 protein
inhibition in colony forming ability (H460 (lung)): greater than 60%
